Measurements as given in paper PMC12291850, “Morin Flavonoid Interaction with Albumin and Its Nanoparticle Conjugation: An Efficient Antioxidant Vehicle for Nutraceuticals” (Antioxidants, 2025).
Each block holds one compound with its values, some of them ahead of it.

Experiments:
[1] = Encapsulation efficiency in BSA nanoparticles (desolvation, HPLC of supernatant); type: physicochemical; conditions: unchanged when co-loaded with morin
[2] = cited from earlier work
[3] = target: T1, bovine serum albumin (BSA) (Bos taurus, UniProt P02769); experiment: Fluorescence quenching of BSA by flavonoids (Stern–Volmer, binding equation, van't Hoff); conditions: for Stern–Volmer quenching constant (Ksv): excitation 295 nm; for ΔG°: morin: 293–310 K
T1 construct: purchased Merck (Darmstadt, Germany)
T1 sequence (P02769 25-607): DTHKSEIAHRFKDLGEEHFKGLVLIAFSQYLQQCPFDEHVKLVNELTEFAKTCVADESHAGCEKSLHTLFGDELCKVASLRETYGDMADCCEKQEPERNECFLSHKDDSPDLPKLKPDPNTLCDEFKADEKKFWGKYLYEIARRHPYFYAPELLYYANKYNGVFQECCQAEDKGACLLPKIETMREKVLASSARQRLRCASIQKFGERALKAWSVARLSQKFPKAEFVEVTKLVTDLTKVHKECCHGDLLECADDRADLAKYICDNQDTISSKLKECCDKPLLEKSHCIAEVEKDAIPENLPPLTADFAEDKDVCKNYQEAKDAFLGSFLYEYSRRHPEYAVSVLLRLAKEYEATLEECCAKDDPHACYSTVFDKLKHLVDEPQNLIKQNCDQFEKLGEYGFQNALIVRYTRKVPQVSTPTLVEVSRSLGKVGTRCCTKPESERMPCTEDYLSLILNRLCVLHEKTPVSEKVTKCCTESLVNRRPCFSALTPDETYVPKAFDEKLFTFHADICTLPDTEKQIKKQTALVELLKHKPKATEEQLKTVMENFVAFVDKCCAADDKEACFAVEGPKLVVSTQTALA
Description: Fluorescence quenching spectroscopy was employed to investigate the interaction between bovine serum albumin (BSA) and selected flavonoids, including morin. All measurements were performed using a spectrofluorometer under controlled temperature conditions (25 °C).
To quantify the quenching effect upon encapsulation, the Stern–Volmer equation was applied (Equation (1)):F0/F = 1 + Ksv [Q](1) where F0 and F are the fluorescence intensities of BSA in the absence and presence of quencher (flavonoid), respectively, Ksv is the Stern–Volmer quenching constant, and [Q] is flavonoid concentration.
The binding constant (Ka) and the number of binding sites (n) were calculated using the logarithmic form of the binding equation (Equation (2)):log[(F0 − F)/F] = log Ka + n log[Q](2)
Thermodynamic parameters—Gibbs free energy change (ΔG°) (Equation (3)), enthalpy change (ΔH°), and entropy change (ΔS°)—were determined from the temperature dependence of the binding constant using the van’t Hoff equation (Equation (4)):ΔG° = ΔH° − TΔS°(3) ln Ka = −ΔH°/RT + ΔS°/R(4)

[4] = target: T1, bovine serum albumin (BSA); experiment: Surface plasmon resonance (SPR) analysis of albumin–morin interaction; type: binding
Description: Gold-coated sensor chips were first cleaned and subsequently modified with a self-assembled monolayer (SAM) of 4-mercaptobenzoic acid (4-MBA) to introduce carboxyl functional groups on the sensor surface.
Non-reacted sites were blocked with 1 M ethanolamine (pH 8.5).
Sensorgrams were recorded in real time, and binding responses were referenced against control channels and buffer-only injections.
Equilibrium binding data were analyzed using Langmuir isotherm models to estimate the apparent association constant (Ka), dissociation constant (Kd), and maximum binding response (Rmax). Data fitting and kinetic analysis were performed using the instrument’s integrated software suite.

[5] = Photolysis and photooxidation (hydroxyl radical from H2O2 under UV 254 nm) of morin, HPLC-DAD; type: physicochemical
Description: Morin was incorporated into the system by adding small aliquots of a stock solution in ethanol, ensuring the final ethanol concentration remained below 2% (v/v) to avoid solvent-induced effects on photoreactivity. Oxidative conditions were simulated by the addition of hydrogen peroxide to a final concentration of 0.5% (w/v), serving as a source of hydroxyl radicals upon UV activation. Each reaction mixture was vortexed to ensure homogeneity and subsequently transferred into 5 mL double-jacketed quartz cuvettes. The outer surface of each cuvette was coated with opaque black paint to prevent ambient light interference, except for a centrally located circular window (1 cm diameter) designed to permit focused irradiation. A circulating water bath maintained the cuvette temperature at 20 ± 0.5 °C. Photolysis was carried out using a high-power mercury UV lamp emitting at 254 nm. […] Quantitative analysis of morin degradation and spectral changes associated with hydroxyl radical attack was performed using high-performance liquid chromatography with diode array detection (HPLC-DAD) and UV–visible spectrophotometry.
(§1) A high-performance liquid chromatography (HPLC) method was developed and validated to quantify morin for the subsequent evaluation of encapsulation efficiency, drug loading capacity, physicochemical stability, photodegradation under ultraviolet (UV) exposure, and hydroxyl radical scavenging activity. Chromatographic analyses were conducted using a Shimadzu LC-20AT HPLC system (Shimadzu, Kyoto, Japan), equipped with a SIL-20A autosampler and an SPD-M20A photodiode array (PDA) detector. Separation was achieved on a C18 ODS Hypersil column (250 mm × 4.6 mm, 5 μm particle size; Agilent Technologies, Santa Clara, CA, USA). The mobile phase consisted of acetonitrile and 0.1% trifluoroacetic acid in water (30:70, v/v), delivered under isocratic conditions at a flow rate of 1.0 mL/min. The injection volume was set at 20 μL. Morin detection was performed at a wavelength of 360 nm using the PDA detector. The method was optimized to ensure adequate peak resolution, retention time reproducibility, and sensitivity for low-concentration samples. This analytical approach was employed throughout the study to monitor morin concentration in various experimental settings, including nanoparticle formulations and stability assays.

[6] = target: T1, bovine serum albumin (BSA); experiment: Circular dichroism of BSA with morin under oxidative conditions; conditions: morin 10 and 20 µM, UV irradiation and hydrogen peroxide
Description: Measurements were performed using a J-1500 CD spectropolarimeter (JASCO, Tokyo, Japan) equipped with a temperature-controlled cell holder maintained at 25 °C. Spectra were acquired using a 0.1 cm path length quartz cuvette. Each spectrum represents the average of three consecutive scans, recorded at a scanning speed of […] with a response time of 1 s. […] For oxidative conditions, hydrogen peroxide was added to a final concentration of 0.5% (w/v) to promote hydroxyl radical generation. All solutions were prepared in 10 mM phosphate buffer at pH 7.4 and allowed to equilibrate for 15 min before measurement. Spectra were corrected by subtracting the baseline of the corresponding buffer or hydrogen peroxide control solution.

[7] = Encapsulation efficiency in BSA nanoparticles (desolvation, HPLC of supernatant); type: physicochemical
Description: as §1
The impact of other antioxidant molecules (ellagic acid and tocopherol succinate) on the behavior of morin encapsulated in BSA nanoparticles in an intestinal environment was assessed through in vitro loading and release experiments. […] Then, ethanol was added dropwise under constant stirring, followed by the addition of 20 µL of an 8% glutaraldehyde solution [25]. The final volume of the mixture was adjusted to 10 mL. After 24 h, the nanoparticles were collected by centrifugation (13,500 rpm, 20 min, and 25 °C) and washed with water. The supernatant was separated for further analysis. To incorporate ellagic acid or tocopherol succinate, each compound—either individually or in combination—was included in the ethanol phase during the dropwise addition. The rest of the procedure remained unchanged. The encapsulation efficiency (%EE) was calculated using Equation (5):(5) %EE=Mi−Mf/Mi×100 where Mi and Mf correspond to the initial amount of morin added during the loading process and the free morin in the supernatant, respectively.

[8] = parameters: method as in doi:10.1039/C6RA20441D; conditions: cited from earlier work
[9] = tested on: human serum albumin (HSA); conditions: fluorescence studies; cited from earlier work
[10] = BSA nanoparticles prepared via desolvation
[11] = BSA fluorescence quenching, 25 °C
[12] = flavonoid–BSA complex, van't Hoff analysis
[13] = read-out: binding constant (Ka) (converted)

- Kd [3]: 11.4 µM
- number of binding sites (n) ([3]; BSA fluorescence quenching): 1.22 ± 0.04
- bimolecular quenching rate constant (kq) [3, 11]: 8.11 × 10^12 ± 0.04 L mol^−1 s^−1
- Stern–Volmer quenching constant (Ksv) [3, 11]: 8.11 × 10^4 ± 0.02 L mol^−1
SMILES: O=c1c(-c2ccc(O)cc2)coc2cc(O)cc(O)c12 [genistein]

- number of binding sites (n) ([3]; BSA fluorescence quenching): 1.33 ± 0.03
- bimolecular quenching rate constant (kq) [3, 11]: 2.23 × 10^13 ± 0.02 L mol^−1 s^−1
- Stern–Volmer quenching constant (Ksv) [3, 11]: 2.23 × 10^5 ± 0.03 L mol^−1
- Kd [3, 13]: 5.99 µM
SMILES: O=c1c(O)c(-c2ccc(O)cc2)oc2cc(O)cc(O)c12 [kaempferol]

- number of binding sites (n) ([3]; BSA fluorescence quenching): 1.13 ± 0.02
- bimolecular quenching rate constant (kq) [3, 11]: 1.88 × 10^13 ±0.03 L mol^−1 s^−1
- Stern–Volmer quenching constant (Ksv) [3, 11]: 1.88 × 10^5 ± 0.02 L mol^−1
SMILES: O=c1c(O)c(-c2ccc(O)c(O)c2)oc2cc(O)cc(O)c12 [quercetin]

Second part, the compound before the results:

SMILES: O=c1oc2cc(O)ccc2c2oc3cc(O)ccc3c12 [coumestrol]
- encapsulation efficiency of coumestrol [1]: 22.4% ± 0.1%
- encapsulation efficiency in BSA nanoparticles ([2]; previous studies): 22.4% ± 0.1%

SMILES: O=c1c(O)c(-c2ccc(O)c(O)c2)oc2cc(O)ccc12 [fisetin]
- average particle size [2, 10]: 200 ± 8 nm
- encapsulation efficiency [2, 10]: 84%

SMILES: O=c1c(-c2ccc(O)cc2)coc2cc(O[C@@H]3O[C@H](CO)[C@@H](O)[C@H](O)[C@H]3O)cc(O)c12 [genistin]
- number of binding sites (n) ([3]; BSA fluorescence quenching): 0.94 ± 0.01
- bimolecular quenching rate constant (kq) [3, 11]: 3.66 × 10^12 ± 0.04 L mol^−1 s^−1
- Stern–Volmer quenching constant (Ksv) [3, 11]: 3.66 × 10^4 ± 0.05 L mol^−1
- ΔG° [3, 12]: –26.9 kJ·mol^−1
- Kd [3, 13]: 29.5 µM

SMILES: O=c1c(O)c(-c2ccc(O)cc2O)oc2cc(O)cc(O)c12 [morin, 3,5,7,2′,4′-pentahydroxyflavone]
- Kd [3]: 5.35 µM
- number of binding sites (n) ([3]; BSA fluorescence quenching): 1.10 ± 0.02
- bimolecular quenching rate constant (kq) [3, 11]: 1.76 × 10^13 ± 0.02 L mol^−1 s^−1
- binding constant (Ka) [3, 11]: 187000 L/mol
- Stern–Volmer quenching constant (Ksv) [3, 11]: 1.76 × 10^5 ± 0.03 L mol^−1
- ΔH° [3, 12]: –28.7 kJ·mol^−1
- ΔS° [3, 12]: 4.75 J·mol^−1·K^−1
- ΔG° [3, 12]: approximately –30.1 kJ·mol^−1
- Kd [4]: 285 µM
- initial morin concentration retained ([5]; UV exposure with hydrogen peroxide, 10 min, 2 µM BSA, pH 7.4): 79%
- morin concentration remaining ([5]; UV exposure with hydrogen peroxide, 10 min, absence of BSA, pH 7.4): 61.5%
- initial morin concentration remaining ([5]; UV photolysis, 10 min, absence of BSA, phosphate buffer pH 7.4): 94.9%
- improvement in morin retention compared to the system without BSA ([5]; photooxidation 10 min, 2 µM BSA): 17.5%
- effect on BSA secondary structure (CD ellipticity at 208 and 222 nm) [6]: no significant loss of α-helical structure
- %EE of morin ([7]; BSA nanoparticles co-loaded with both ellagic acid and tocopherol succinate): 80%
- %EE of morin ([7]; BSA nanoparticles co-loaded with ellagic acid): 76%
- %EE of morin ([7]; BSA nanoparticles co-loaded with tocopherol succinate): 72.6%
- %EE of morin ([7]; encapsulated alone in BSA nanoparticles (comparison with coumestrol co-loading)): 20.5% ± 3.0%
- %EE ([7]; initial [Morin] 0.128 mM): 25.97 ± 4.29%
- Morin/BSA molar ratio ([7]; initial [Morin] 0.128 mM): 0.30 ± 0.05
- %EE ([7]; initial [Morin] 0.222 mM): 20.42 ± 0.67%
- Morin/BSA molar ratio ([7]; initial [Morin] 0.222 mM): 0.48 ± 0.02
- %EE ([7]; initial [Morin] 0.308 mM): 19.31 ± 0.42%
- Morin/BSA molar ratio ([7]; initial [Morin] 0.308 mM): 0.68 ± 0.01
- %EE ([7]; initial [Morin] 0.507 mM): 20.99 ± 0.27%
- Morin/BSA molar ratio ([7]; initial [Morin] 0.507 mM): 0.98 ± 0.01
- Morin/BSA molar ratio ([7]; initial [Morin] 0.634 mM): 1.01 ± 0.04
- %EE ([7]; initial [Morin] 1.478 mM): 18.94 ± 0.85%
- Morin/BSA molar ratio ([7]; initial [Morin] 1.478 mM): 1.48 ± 0.07
- encapsulation efficiencies (maximum) ([7]; morin in BSA nanoparticles prepared by desolvation): up to 26%
- extended release ([8]; 72 h, pH 7.4): up to 80%
- initial 6 h release ([8]; stated for both this study (SIF) and the literature study (pH 7.4)): < 40%

SMILES: O=C(/C=C/c1ccc(O)c(O)c1)O[C@H](Cc1ccc(O)c(O)c1)C(=O)O [rosmarinic acid]
- association constant (K) [9]: ~10^7 M^−1
